Experimental findings from PMC10623575, “Discovery of Potent and Selective CB2 Agonists Utilizing a Function-Based Computational Screening Protocol” (ACS Chemical Neuroscience, 2023) are described below.

Holding throughout (format): cell-based
One test concerns the target CB1 receptor (Homo sapiens, UniProt P21554). Nature of the test: Calcium mobilization assay, agonist mode, CHO expressing CB1 and Gα16. As to conditions: for EC50: agonist activity, CHO expressing CB1, mean ± SEM, read-out: CB1 EC50. As for the experimental part:
(§1) Chinese hamster ovarian (CHO) cells collected from the American Type Culture Collection were maintained in Ham’s F-12K (Kaighn’s) supplemented with 100 mg/L streptomycin, 100 mg/L penicillin, and 10% fetal bovine serum (FBS) in a humidified atmosphere of 5% CO2 at 37 °C. CHO cells were co-transfected with plasmids encoding CB1 or CB2 and Gα16 by electroporation. To establish stable cell lines, transfected cells were seeded on 10 cm dishes with 40 μg/mL blasticidin and 1 mg/mL G418 in culture medium after 24 h. The selection medium was substituted once every 3 days until colonies formed. A solitary colony was obtained, propagated, and assessed using a calcium mobilization assay to verify the function and expression of the transfected genes.
(§2) 3 × 10^4 cells/well were employed to seed cells onto 96-well plates, which were subsequently incubated throughout the night. […] For antagonist mode, the extra dye was washed out and 50 μL of HBSS with test compounds, DMSO (negative control), or AM630 (positive control) was introduced. […] To be noticed, each experiment has been independently replicated three times, with three repetitions and eight gradients each time.
(§3) The collected data were processed with GraphPad Prism software (GraphPad). […] Means ± SEM were computed utilizing this software. The analyses were evaluated by the Student t test. When the p value is smaller than 0.05, the result is statistically significant.

In test [1] the target is T1, CB2 receptor (Homo sapiens, UniProt P34972).
T1 construct: expressed in transfected cells
T1 sequence (P34972 whole entry): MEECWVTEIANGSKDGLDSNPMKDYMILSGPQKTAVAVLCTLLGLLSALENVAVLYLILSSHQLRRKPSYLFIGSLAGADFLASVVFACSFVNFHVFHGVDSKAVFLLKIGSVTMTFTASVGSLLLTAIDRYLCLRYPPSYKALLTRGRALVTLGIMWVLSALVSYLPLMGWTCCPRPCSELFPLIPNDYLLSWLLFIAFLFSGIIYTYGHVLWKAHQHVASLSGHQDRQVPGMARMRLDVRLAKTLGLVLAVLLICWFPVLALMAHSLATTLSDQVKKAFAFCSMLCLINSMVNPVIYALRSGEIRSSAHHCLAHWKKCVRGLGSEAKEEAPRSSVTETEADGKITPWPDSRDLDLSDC
Kind of test: Calcium mobilization assay, agonist mode, CHO expressing CB2 and Gα16. Particulars: for SI, selectivity index for the CB2, SI = EC50(CB1)/EC50(CB2): agonist mode; for CB1 and CB2 biological activity (in words): CB1 and CB2 calcium mobilization assays, up to 10 μM. As for the experimental part:
as §1, §2, §3

The target in test [2] is T1, CB2 receptor. Kind of test: Calcium mobilization assay, antagonist mode (CP55940 challenge), CHO expressing CB2. As for the experimental part:
as §1
3 × 10^4 cells/well were employed to seed cells onto 96-well plates, which were subsequently incubated throughout the night. Cells were then treated with 2 μM Fluo-4 AM in HBSS (0.3 mM Na2HPO4, 5.4 mM KCl, 4.2 mM NaHCO3, 0.4 mM KH2PO4, 0.5 mM MgCl2, 1.3 mM CaCl2, 137 mM NaCl, 0.6 mM MgSO4, 250 μM sulfinpyrazone, and 5.6 mM D-glucose, pH 7.4) for 45 min at 37 °C. […] Meanwhile, the change of intracellular calcium was measured at an excitation wavelength of 525 and 485 nm. For antagonist mode, the extra dye was washed out and 50 μL of HBSS with test compounds, DMSO (negative control), or AM630 (positive control) was introduced. […] The change of intracellular calcium was captured at an excitation wavelength of 525 and 485 nm. To be noticed, each experiment has been independently replicated three times, with three repetitions and eight gradients each time.
as §3

The mark [3] stands for this setting: agonist activity, CHO expressing CB2, three independent assays, mean ± SEM, read-out: CB2 EC50.
Setting [4] is: single independent experiment, replicate 1, read-out: CB2 agonist(μM) replicate 1.
Where [5] appears, read: single independent experiment, replicate 2, read-out: CB2 agonist(μM) replicate 2.
The mark [6] stands for this setting: single independent experiment, replicate 3, read-out: CB2 agonist(μM) replicate3.

Like-named read-outs stand apart in the source and are kept apart here.

Sequence of CB1 receptor (P21554 whole entry): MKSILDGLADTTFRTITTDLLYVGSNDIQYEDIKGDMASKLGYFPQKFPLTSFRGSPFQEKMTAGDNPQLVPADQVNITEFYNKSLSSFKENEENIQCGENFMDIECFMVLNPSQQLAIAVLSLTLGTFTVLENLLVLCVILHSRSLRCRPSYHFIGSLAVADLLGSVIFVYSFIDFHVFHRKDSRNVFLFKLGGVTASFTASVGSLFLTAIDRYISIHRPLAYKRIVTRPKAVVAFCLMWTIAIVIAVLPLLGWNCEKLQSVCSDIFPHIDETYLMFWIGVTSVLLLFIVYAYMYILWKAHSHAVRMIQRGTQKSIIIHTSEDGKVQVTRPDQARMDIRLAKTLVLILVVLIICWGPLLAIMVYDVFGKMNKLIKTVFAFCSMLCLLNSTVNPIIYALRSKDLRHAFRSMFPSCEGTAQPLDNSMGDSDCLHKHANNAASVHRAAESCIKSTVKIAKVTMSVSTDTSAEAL

Consider `COc1ccc(C=C2SC(=O)N(C(C)C)C2=O)cc1OC(=O)C(C)(C)CCl` [Compound 31, 5-((3-Isopropyl-2,4-dioxothiazolidin-5-ylidene) Methyl)-2-methoxyphenyl 3-Chloro-2,2-dimethylpropanoate], for which the EC50 is over 10000 nM at CB1 receptor; 3.38 ± 2.15 µM on CB2 receptor [1] (setting [3]); 0.814 µM on CB2 receptor [1] (setting [4]); 1.68 µM on CB2 receptor [1] (setting [5]); 7.65 µM on CB2 receptor [1] (setting [6]). Moreover, the “SI, selectivity index for the CB2, SI = EC50(CB1)/EC50(CB2)” value (from here on “SI, selectivity index for the CB2”) at CB2 receptor [1] is reported as over 3.

Regarding `CC(C)N1C(=O)SC(=Cc2ccccc2OCc2cccc(Br)c2)C1=O` [Compound 7, 5-(2-((3-Bromobenzyl)oxy)benzylidene)-3-isopropylthiazolidine-2,4-dione], the EC50 at CB1 receptor was over 10000 nM; at CB2 receptor [1] (setting [3]), over 10 µM. Moreover, the “CB1 and CB2 biological activity (in words)” value on CB2 receptor [1] is on record as “do not show biological activities”.

On to `CC(C)N1C(=O)SC(=Cc2ccccc2OCc2ccccc2C#N)C1=O` [Compound 1, 2-((2-((3-Isopropyl-2,4-dioxothiazolidin-5-ylidene)methyl)phenoxy)methyl) Benzonitrile], for which, at CB1 receptor (10 μM), the “bioactivity against CB1 (in words)” value was “no bioactivity”. Also, the EC50 is over 10000 nM on CB1 receptor; 3.12 ± 2.22 µM at CB2 receptor [1] (setting [3]); 1.75 µM at CB2 receptor [1] (setting [4]); 7.47 µM at CB2 receptor [1] (setting [5]); 0.139 µM at CB2 receptor [1] (setting [6]). In addition, the “response against CHO–CB2 by calcium assay” value at CB2 receptor [1] (10 μM) is over 40%. Moreover, at CB2 receptor [1], the “SI, selectivity index for the CB2” value was over 3.

Turning to `CC(C)N1C(=O)SC(=Cc2ccccc2OCc2ccccc2F)C1=O` [Compound 6, 5-(2-((2-Fluorobenzyl)oxy)benzylidene)-3-isopropylthiazolidine-2,4-dione], the EC50 at CB1 receptor was over 10000 nM; at CB2 receptor [1] (setting [3]) it was 0.37 ± 0.26 µM; at CB2 receptor [1] (setting [4]), 0.188 µM; on CB2 receptor [1] (setting [5]), 0.026 µM; on CB2 receptor [1] (setting [6]), 0.886 µM. The “SI, selectivity index for the CB2” value at CB2 receptor [1] was over 27.

As to `N#Cc1ccccc1COc1cccc(C=C2SC(=O)N(C3CCCC3)C2=O)c1` [Compound 27, 2-((3-((3-Cyclopentyl-2,4-dioxothiazolidin-5-ylidene)methyl)phenoxy)methyl) Benzonitrile], the values for the EC50 on CB1 receptor and on CB2 receptor [1] (setting [3]) were over 10000 nM and over 10 µM, respectively.

For `CC(C)N1C(=O)S/C(=C\c2ccccc2OC(=O)c2ccccc2F)C1=O` [Compound 18, 2-((3-Isopropyl-2,4-dioxothiazolidin-5-ylidene)methyl) Phenyl 2-Fluoro Benzoate], the EC50 was over 10000 nM at CB1 receptor; 3.64 ± 1.14 µM at CB2 receptor [1] (setting [3]); 4.96 µM at CB2 receptor [1] (setting [4]); 4.58 µM at CB2 receptor [1] (setting [5]); 1.38 µM on CB2 receptor [1] (setting [6]). In addition, the “SI, selectivity index for the CB2” value at CB2 receptor [1] was over 2.

As to `CC(C)N1C(=O)SC(=Cc2ccccc2OC(=O)c2ccc(Cl)nc2)C1=O` [Compound 24, 2-((3-Isopropyl-2,4-dioxothiazolidin-5-ylidene)methyl)phenyl 6-Chloronico Tinate], the EC50 was over 10000 nM at CB1 receptor; 3.93 ± 1.97 µM on CB2 receptor [1] (setting [3]); 7.84 µM at CB2 receptor [1] (setting [4]); 2.4 µM on CB2 receptor [1] (setting [5]); 1.54 µM on CB2 receptor [1] (setting [6]). Also, the “SI, selectivity index for the CB2” value at CB2 receptor [1] was over 2.

Regarding `CC(C)CN1C(=O)S/C(=C\c2ccccc2OC(=O)C(C)(C)CCl)C1=O` [Compound 16, 2-((3-Isobutyl-2,4-dioxothiazolidin-5-ylidene)methyl) Phenyl 3-Chloro-2,2-dimethylpropanoate], the EC50 at CB1 receptor was over 10000 nM; on CB2 receptor [1] (setting [3]), 1.51 ± 0.29 µM; on CB2 receptor [1] (setting [4]), 0.949 µM; on CB2 receptor [1] (setting [5]), 1.89 µM; on CB2 receptor [1] (setting [6]), 1.69 µM. Besides, the “SI, selectivity index for the CB2” value at CB2 receptor [1] is given as over 6.

Regarding `COc1ccc(C=C2SC(=O)N(C(C)C)C2=O)cc1OC(=O)c1cccc(Br)c1` [Compound 28, 5-((3-Isopropyl-2,4-dioxothiazolidin-5-ylidene)methyl)-2-methoxyphenyl 3-Bromobenzoate], the EC50 on CB1 receptor was over 10000 nM; on CB2 receptor [1] (setting [3]) it was 2.96 ± 2.3 µM; on CB2 receptor [1] (setting [4]) it was 0.637 µM; at CB2 receptor [1] (setting [5]), 7.56 µM; at CB2 receptor [1] (setting [6]), 0.693 µM. Besides, the “SI, selectivity index for the CB2” value at CB2 receptor [1] is reported as over 3.

With `CCCN1C(=O)SC(=Cc2ccccc2OCc2ccccc2C#N)C1=O` [Compound 3, 2-((2-((2,4-Dioxo-3-propylthiazolidin-5-ylidene)methyl)phenoxy)methyl) Benzo Nitrile], the figures for the EC50 on CB1 receptor and at CB2 receptor [1] (setting [3]) were over 10000 nM and over 10 µM, respectively.

Regarding `COc1ccc(/C=C2\SC(=O)N(C(C)C)C2=O)cc1OC(=O)c1ccc(CCl)cc1` [Compound 30, 5-((3-Isopropyl-2,4-dioxothiazolidin-5-ylidene) Methyl)-2-methoxyphenyl 4-(Chloromethyl) Benzoate], the results for the EC50 at CB1 receptor and at CB2 receptor [1] (setting [3]) were over 10000 nM and over 10 µM, respectively.

With `COc1ccc(C=C2SC(=O)N(CC(C)C)C2=O)cc1OC(=O)C(C)(C)CCl` [Compound 34, 5-((3-Isobutyl-2,4-dioxothiazolidin-5-ylidene)methyl)-2-methoxyphenyl 3-Chloro-2,2-dimethylpropanoate], the EC50 on CB1 receptor is over 10000 nM; on CB2 receptor [1] (setting [3]), over 10 µM.

In the case of `COc1cc(COc2ccccc2C=C2SC(=O)N(C(C)C)C2=O)cc(OC)c1` [Compound 9, 5-(2-((3,5-Dimethoxybenzyl)oxy)benzylidene)-3-isopropylthiazolidine-2,4-dione], the figures for the EC50 on CB1 receptor and at CB2 receptor [1] (setting [3]) were over 10000 nM and over 10 µM, respectively. Also, on CB2 receptor [1], the “CB1 and CB2 biological activity (in words)” value is “do not show biological activities”.

On to `COc1cc(COc2ccccc2C=C2SC(=O)N(CC(C)C)C2=O)cc(OC)c1` [Compound 11, 5-(2-((3,5-Dimethoxybenzyl)oxy)benzylidene)-3-isobutylthiazolidine-2,4-dione], for which the EC50 on CB1 receptor was over 10000 nM; on CB2 receptor [1] (setting [3]) it was over 10 µM.

For `COc1ccc(C=C2SC(=O)N(C(C)C)C2=O)cc1OC(=O)c1ccccc1F` [Compound 29, 5-((3-Isopropyl-2,4-dioxothiazolidin-5-ylidene)methyl)-2-methoxyphenyl 2-Fluorobenzoate], the EC50 was over 10000 nM on CB1 receptor and over 10 µM on CB2 receptor [1] (setting [3]).

Consider `CCCC(=O)Oc1cc(C=C2SC(=O)N(C(C)C)C2=O)ccc1OC` [Compound 33, 5-((3-Isopropyl-2,4-dioxothiazolidin-5-ylidene)methyl)-2-methoxyphenylbuty Rate], for which the EC50 at CB1 receptor is over 10000 nM; on CB2 receptor [1] (setting [3]), over 10 µM.

Turning to `O=C1SC(=Cc2ccccc2OCc2ccccc2F)C(=O)N1C1CCCC1` [Compound 12, 3-Cyclopentyl-5-(2-((2-fluorobenzyl)oxy)benzylidene)thiazolidine-2,4-dione], the EC50 on CB1 receptor was over 10000 nM; on CB2 receptor [1] (setting [3]) it was over 10 µM. Further, the “CB1 and CB2 biological activity (in words)” value on CB2 receptor [1] is “no bioactivity”.

For the compound `N#Cc1ccccc1COc1ccccc1C=C1SC(=O)N(C2CCCC2)C1=O` [Compound 5, 2-((2-((3-Cyclopentyl-2,4-dioxothiazolidin-5-ylidene)methyl)phenoxy)methyl) Benzonitrile], the EC50 at CB1 receptor is over 10000 nM; on CB2 receptor [1] (setting [3]), 2.26 ± 0.48 µM; on CB2 receptor [1] (setting [4]) it was 1.67 µM; at CB2 receptor [1] (setting [5]), 1.92 µM; on CB2 receptor [1] (setting [6]), 3.2 µM. Also, the “SI, selectivity index for the CB2” value on CB2 receptor [1] is over 4.

With `COc1ccc(C(=O)c2c(C)n(CCN3CCOCC3)c3cc(I)ccc23)cc1` [AM630, reference compound], the IC50 is 0.34 ± 0.1 µM on CB2 receptor [2] (CB2 IC50, antagonist activity, CHO expressing CB2, three independent assays, mean ± SEM); 0.153 µM on CB2 receptor [2] (CB2 antagonist(μM) replicate 1, single independent experiment, replicate 1); 0.319 µM at CB2 receptor [2] (CB2 antagonist(μM) replicate 2, single independent experiment, replicate 2); 0.55 µM on CB2 receptor [2] (CB2 antagonist(μM) replicate3, single independent experiment, replicate 3).

For the compound `COc1ccc(/C=C2\SC(=O)N(C(C)C)C2=O)cc1OC(=O)C12CC3CC(CC(C3)C1)C2` [Compound 32, 5-((3-Isopropyl-2,4-dioxothiazolidin-5-ylidene) Methyl)-2-methoxyphenyl (3r, 5r, 7r)-Adamantane-1-carboxylate], the EC50 at CB1 receptor was over 10000 nM; on CB2 receptor [1] (setting [3]), 0.83 ± 0.65 µM; at CB2 receptor [1] (setting [4]) it was 0.093 µM; at CB2 receptor [1] (setting [5]), 0.287 µM; at CB2 receptor [1] (setting [6]), 2.12 µM. Also, the “SI, selectivity index for the CB2” value on CB2 receptor [1] is on record as over 12.
